# Tests used:
# [1] = system: 80S14 (p21-deficient) cells; assay: Cytotoxicity assay using isogenic cell lines: IC50 in 80S14 (p21-deficient) cells, SRB; assay type: cell-based, human; details: Homo sapiens, 120 h; 80S14 (p21-deficient) cells, 5 days, SRB; class symbols; read-out: IC50 for 80S14
# How it was run: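 IC50 is the concentration halving proliferation relative to untreated controls, read from SRB absorbance (560 nm) after TCA fixation. Test agent dilutions (5 pM–50 μM or 170 pg/ml–10 μg/ml) were left on p21-deficient 80S14 cells (12,000/well, pre-incubated overnight) for 5 days at 37 °C.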
# LoVo Colon cell line = assay: Cytotoxicity assay using LoVo colon cell line, SRB; assay type: cell-based; details: Homo sapiens, 96 h; Cellular activity in LoVo cell; 4 days incubation, SRB; read-out: Inhibition of LoVo
# How it was run: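 Growth inhibition read by sulforhodamine B after 4-day compound exposure at 37 °C. Colon LoVo cells plated at 4000 per well in RPMI/10% FBS a day earlier; doses ranged 5 pM-20 μM or 170 pg/ml-10 μg/ml. IC50 is the concentration halving proliferation versus untreated wells.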
SMILES,IC50 [1] [nM],IC50 (LoVo Colon cell line) [nM]
"O=C(Nc1cccc(-c2ccnc3c(C(=O)c4cccs4)cnn23)c1)OCCCN1CCOCC1 [Example 425, 3-Morpholin-4-ylpropyl 3-[3-(thien-2-ylcarbonyl)pyrazolo[1,5-a]pyrimidin-7-yl]phenylcarbamate]",1000 to 10000,100 to 1000
"CC/C=C(\C)CNc1cccc(-c2ccnc3c(C(=O)c4cccs4)cnn23)c1 [Example 426, [7-(3-{[(2E)-2-Methylpent-2-enyl]amino}phenyl)pyrazolo[1,5-a]pyrimidin-3-yl](thien-2-yl)methanone]",1000 to 10000,100 to 1000
"O=C(Cc1ccncc1)Nc1cccc(-c2ccnc3c(C(=O)c4cccs4)cnn23)c1 [Example 427, 2-Pyridin-4-yl-N-{3-[3-(thien-2-ylcarbonyl)pyrazolo[1,5-a]pyrimidin-7-yl]phenyl}acetamide]",< 1000,1000 to 20000
"O=C(Nc1cccc(-c2ccnc3c(C(=O)c4cccs4)cnn23)c1)OCc1ccccn1 [Example 429, Pyridin-2-ylmethyl 3-[3-(thien-2-ylcarbonyl)pyrazolo[1,5-a]pyrimidin-7-yl]phenylcarbamate]",1000 to 10000,100 to 1000
"CCC(C)C(C)CNc1cccc(-c2ccnc3c(C(=O)c4cccs4)cnn23)c1 (stereo not shown) [Example 430, (7-{3-[(2,3-Dimethylpentyl)amino]phenyl}pyrazolo[1,5-a]pyrimidin-3-yl)(thien-2-yl)methanone]",1000 to 10000,100 to 1000
"C/C=C(\C)CNc1cccc(-c2ccnc3c(C(=O)c4cccs4)cnn23)c1 [Example 431, [7-(3-{[(2E)-2-Methylbut-2-enyl]amino}phenyl)pyrazolo[1,5-a]pyrimidin-3-yl] (thien-2-yl)methanone]",1000 to 10000,100 to 1000
"CC/C=C/CNc1cccc(-c2ccnc3c(C(=O)c4cccs4)cnn23)c1 [Example 432, (7-{3-[(2E)-Pent-2-enylamino]phenyl}pyrazolo[1,5-a]pyrimidin-3-yl)(thien-2-yl)methanone]",< 1000,< 100
"CC(CCNc1cccc(-c2ccnc3c(C(=O)c4cccs4)cnn23)c1)CC(C)(C)C (stereo not shown) [Example 433, Thien-2-yl(7-{3-[(3,5,5-trimethylhexyl)amino]phenyl}pyrazolo[1,5-a]pyrimidin-3-yl)methanone]",1000 to 10000,100 to 1000
"C=C(C)CNc1cccc(-c2ccnc3c(C(=O)c4cccs4)cnn23)c1 [Example 434, (7-{3-[(2-Methylprop-2-enyl)amino]phenyl}pyrazolo[1,5-a]pyrimidin-3-yl)(thien-2-yl)methanone]",1000 to 10000,100 to 1000
"C=C(CC)CNc1cccc(-c2ccnc3c(C(=O)c4cccs4)cnn23)c1 [Example 435, (7-{3-[(2-Ethylprop-2-enyl)amino]phenyl}pyrazolo[1,5-a]pyrimidin-3-yl)(thien-2-yl)methanone]",1000 to 10000,100 to 1000
"O=C(c1cccs1)c1cnn2c(-c3cccc(NCC4CC=CCC4)c3)ccnc12 (stereo not shown) [Example 436, (7-{3-[(cyclohex-3-en-1-ylmethyl)amino]phenyl}pyrazolo[1,5-a]pyrimidin-3-yl)-(thien-2-yl)-methanone]",< 1000,< 100
"O=C(c1cccs1)c1cnn2c(-c3cccc(N4CCCC4=O)c3)ccnc12 [Example 437, 1-{3-[3-(Thien-2-ylcarbonyl)pyrazolo[1,5-a]pyrimidin-7-yl]phenyl}pyrrolidin-2-one]",< 1000,< 100
"O=C(c1cccs1)c1cnn2c(-c3ccc(F)c(N(C(=O)c4ccccc4Cl)C(=O)c4ccccc4Cl)c3)ccnc12 [Example 438, 2-Chloro-N-(2-chlorobenzoyl)-N-{2-fluoro-5-[3-(thien-2-ylcarbonyl)pyrazolo[1,5-a]pyrimidin-7-yl]phenyl}benzamide]",< 1000,< 100
"O=C(Cc1cccnc1)Nc1cccc(-c2ccnc3c(C(=O)c4cccs4)cnn23)c1 [Example 439, 2-Pyridin-3-yl-N-{3-[3-(thien-2-ylcarbonyl)pyrazolo[1,5-a]pyrimidin-7-yl]phenyl}acetamide]",1000 to 10000,< 100
"O=C(CCc1ccncc1)Nc1cccc(-c2ccnc3c(C(=O)c4cccs4)cnn23)c1 [Example 440, 3-Pyridin-4-yl-N-{3-[3-(thien-2-ylcarbonyl)pyrazolo[1,5-a]pyrimidin-7-yl]phenyl}propanamide]",1000 to 10000,100 to 1000
"O=C(Nc1cccc(-c2ccnc3c(C(=O)c4cccs4)cnn23)c1)c1cn[nH]c1 [Example 441, N-{3-[3-(Thien-2-ylcarbonyl)pyrazolo[1,5-a]pyrimidin-7-yl]phenyl}-1H-pyrazole-4-carboxamide]",10000 to 50000,1000 to 20000

SMILES,IC50 [1] [nM],IC50 (LoVo Colon cell line) [nM]
"O=C(O)CCC(=O)Nc1cccc(-c2ccnc3c(C(=O)c4cccs4)cnn23)c1 [Example 442, 4-Oxo-4-({3-[3-(thien-2-ylcarbonyl)pyrazolo[1,5-a]pyrimidin-7-yl]phenyl}amino)butanoic acid]",10000 to 50000,1000 to 20000
"O=C(O)c1ccccc1C(=O)Nc1cccc(-c2ccnc3c(C(=O)c4cccs4)cnn23)c1 [Example 443, 2-[({3-[3-(Thien-2-ylcarbonyl)pyrazolo[1,5-a]pyrimidin-7-yl]phenyl}amino)carbonyl]benzoic acid]",10000 to 50000,1000 to 20000
"O=C(O)CCCC(=O)Nc1cccc(-c2ccnc3c(C(=O)c4cccs4)cnn23)c1 [Example 444, 5-Oxo-5-({3-[3-(thien-2-ylcarbonyl)pyrazolo[1,5-a]pyrimidin-7-yl]phenyl}amino)pentanoic acid]",10000 to 50000,1000 to 20000
"CC(CC(=O)O)CC(=O)Nc1cccc(-c2ccnc3c(C(=O)c4cccs4)cnn23)c1 (stereo not shown) [Example 445, 3-Methyl-5-oxo-5-({3-[3-(thien-2-ylcarbonyl)pyrazolo[1,5-a]pyrimidin-7-yl]phenyl}amino)pentanoic acid]",10000 to 50000,1000 to 20000
"O=C(O)c1cc(Cl)c(Cl)cc1C(=O)Nc1cccc(-c2ccnc3c(C(=O)c4cccs4)cnn23)c1 [Example 446, 4,5-Dichloro-2-[({3-[3-(thien-2-ylcarbonyl)pyrazolo[1,5-a]pyrimidin-7-yl]phenyl}amino)carbonyl]benzoic acid]",10000 to 50000,1000 to 20000
"CCCCCCCCCC(C)CNc1cccc(-c2ccnc3c(C(=O)c4cccs4)cnn23)c1 (stereo not shown) [Example 447, (7-{3-[(2-Methylundecyl)amino]phenyl}pyrazolo[1,5-a]pyrimidin-3-yl)(thien-2-yl)methanone]",10000 to 50000,1000 to 20000
"O=C(CCc1cccnc1)Nc1cccc(-c2ccnc3c(C(=O)c4cccs4)cnn23)c1 [Example 448, 3-Pyridin-3-yl-N-{3-[3-(thien-2-ylcarbonyl)pyrazolo[1,5-a]pyrimidin-7-yl]phenyl}propanamide]",10000 to 50000,100 to 1000
"O=C(CSc1ccncc1)Nc1cccc(-c2ccnc3c(C(=O)c4cccs4)cnn23)c1 [Example 449, 2-(Pyridin-4-ylthio)-N-{3-[3-(thien-2-ylcarbonyl)pyrazolo[1,5-a]pyrimidin-7-yl]phenyl}acetamide]",10000 to 50000,100 to 1000
"CN(C)c1ccc(-c2cccc(-c3ccnc4c(C(=O)c5cccs5)cnn34)c2)cc1 [Example 450, {7-[4′-(Dimethylamino)-1,1′-biphenyl-3-yl]pyrazolo[1,5-a]pyrimidin-3-yl}(thien-2-yl)methanone]",< 1000,< 100
"Nc1cccc(-c2cccc(-c3ccnc4c(C(=O)c5cccs5)cnn34)c2)c1 [Example 451, [7-(3′-Amino-1,1′-biphenyl-3-yl)pyrazolo[1,5-a]pyrimidin-3-yl](thien-2-yl)methanone]",< 1000,100 to 1000
"O=C(c1cccs1)c1cnn2c(-c3cccc(-c4ccc(CO)cc4)c3)ccnc12 [Example 452, {7-[4′-(Hydroxymethyl)-1,1′-biphenyl-3-yl]pyrazolo[1,5-a]pyrimidin-3-yl}(thien-2-yl)methanone]",< 1000,< 100
"CN(C)c1cccc(-c2cccc(-c3ccnc4c(C(=O)c5cccs5)cnn34)c2)c1 [Example 453, {7-[3′-(Dimethylamino)-1,1′-biphenyl-3-yl]pyrazolo[1,5-a]pyrimidin-3-yl}(thien-2-yl)methanone]",1000 to 10000,100 to 1000
"CN(C)c1ccc(-c2cc(-c3ccnc4c(C(=O)c5cccs5)cnn34)ccc2F)cc1 [Example 454, {7-[4′-(Dimethylamino)-6-fluoro-1,1′-biphenyl-3-yl]pyrazolo[1,5-a]pyrimidin-3-yl}(thien-2-yl)methanone]",1000 to 10000,100 to 1000
"O=C(c1cccs1)c1cnn2c(-c3ccc(F)c(-c4ccc(CO)cc4)c3)ccnc12 [Example 455, {7-[6-Fluoro-4′-(hydroxymethyl)-1,1′-biphenyl-3-yl]pyrazolo[1,5-a]pyrimidin-3-yl}(thien-2-yl)methanone]",1000 to 10000,100 to 1000
"CCc1ccc(-c2cccc(-c3ccnc4c(C(=O)c5cccs5)cnn34)c2)cc1 [Example 456, [7-(4′-Ethyl-1,1′-biphenyl-3-yl)pyrazolo[1,5-a]pyrimidin-3-yl](thien-2-yl)methanone]",< 1000,< 100
"O=C(O)CCc1ccc(-c2cccc(-c3ccnc4c(C(=O)c5cccs5)cnn34)c2)cc1 [Example 457, 3-{3′-[3-(Thien-2-ylcarbonyl)pyrazolo[1,5-a]pyrimidin-7-yl]-1,1′-biphenyl-4-yl}propanoic acid]",10000 to 50000,100 to 1000

# — patent US20060063784A1, “Method of using substituted pyrazolo [1,5-a] pyrimidines” (priority 2004, published 2006)
